Laboratory results: publication PMC9012467 (Science Advances, 2022)

Columns and labels:
PPPDE2 = target: T1, PPPDE2 (Homo sapiens, UniProt Q6ICB0); experiment: fluorogenic assay coupled to beta-glucosidase; assay type: biochemical; conditions: 10 μM substrate, 20 μg beta-glucosidase, pH 5.0, 37°C
T1 sequence (Q6ICB0 1-168): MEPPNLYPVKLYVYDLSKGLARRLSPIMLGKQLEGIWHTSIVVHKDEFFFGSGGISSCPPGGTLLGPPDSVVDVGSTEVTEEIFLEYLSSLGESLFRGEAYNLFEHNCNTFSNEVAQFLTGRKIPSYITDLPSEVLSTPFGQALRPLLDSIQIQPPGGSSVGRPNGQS

PPPDE1 = PPPDE1 (Homo sapiens, UniProt Q9BSY9); experiment: fluorogenic assay coupled to beta-glucosidase; assay type: biochemical; conditions: 10 μM substrate, 20 μg beta-glucosidase, pH 5.0, 37°C
Sequence of PPPDE1 (Q9BSY9 whole entry): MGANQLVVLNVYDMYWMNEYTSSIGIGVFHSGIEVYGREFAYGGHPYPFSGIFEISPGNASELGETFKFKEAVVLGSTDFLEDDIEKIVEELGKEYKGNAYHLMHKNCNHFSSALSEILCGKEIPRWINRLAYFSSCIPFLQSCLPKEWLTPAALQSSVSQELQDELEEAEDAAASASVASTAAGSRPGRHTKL

CCCCCCCCCCCCCCCC(=O)SC[C@H]1O[C@@H](Oc2ccc3c(C)cc(=O)oc3c2)[C@H](O)[C@@H](O)[C@@H]1O [MU-6S-palm-βGlc, 4-methylumbelliferyl 6-thio-palmitate-β-D-glucopyranoside]
fluorogenic assay coupled to beta-glucosidase (PPPDE2): both showed high S-depalmitoylation activity by assaying DPP-5 or MU-6S-palm-βGlc | fluorogenic assay coupled to beta-glucosidase (PPPDE1): both showed high S-depalmitoylation activity by assaying DPP-5 or MU-6S-palm-βGlc
